pKi: −log10 of the molar value.
Biological target: T1, CgNce103 (Nakaseomyces glabratus, UniProt Q6FTL6)
T1 construct: gene NCE103; enzyme preparation, host and tags not described
T1 sequence (Q6FTL6 1-219): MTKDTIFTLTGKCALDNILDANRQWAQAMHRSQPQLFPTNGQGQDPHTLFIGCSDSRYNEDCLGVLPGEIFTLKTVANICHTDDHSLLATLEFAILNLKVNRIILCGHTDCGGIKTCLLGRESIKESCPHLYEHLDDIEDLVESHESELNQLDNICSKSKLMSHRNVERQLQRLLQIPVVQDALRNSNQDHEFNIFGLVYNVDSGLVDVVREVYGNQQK
Experiment: stopped-flow CO2 hydration assay
Format: biochemical

SMILES | pKi
NS(=O)(=O)c1ccc(NC(=S)N/N=C2\C(=O)Nc3ccccc32)cc1 [4a, 1H-indole-2,3-dione 3-[N-(4-sulfamoylphenyl)thiosemicarbazone], R = H] | 7.19
Cc1ccc2c(c1)/C(=N/NC(=S)Nc1ccc(S(N)(=O)=O)cc1)C(=O)N2 [4b, 1H-indole-2,3-dione 3-[N-(4-sulfamoylphenyl)thiosemicarbazone], R = 5-CH3] | 7.27
NS(=O)(=O)c1ccc(NC(=S)N/N=C2\C(=O)Nc3ccc(OC(F)(F)F)cc32)cc1 [4c, 1H-indole-2,3-dione 3-[N-(4-sulfamoylphenyl)thiosemicarbazone], R = 5-OCF3] | 7.27
NS(=O)(=O)c1ccc(NC(=S)N/N=C2\C(=O)Nc3ccc(F)cc32)cc1 [4d, 1H-indole-2,3-dione 3-[N-(4-sulfamoylphenyl)thiosemicarbazone], R = 5-F] | 7.46
NS(=O)(=O)c1ccc(NC(=S)N/N=C2\C(=O)Nc3ccc(Cl)cc32)cc1 [4e, 1H-indole-2,3-dione 3-[N-(4-sulfamoylphenyl)thiosemicarbazone], R = 5-Cl] | 7.38
NS(=O)(=O)c1ccc(NC(=S)N/N=C2\C(=O)Nc3ccc(Br)cc32)cc1 [4f, 1H-indole-2,3-dione 3-[N-(4-sulfamoylphenyl)thiosemicarbazone], R = 5-Br] | 7.29
NS(=O)(=O)c1ccc(NC(=S)N/N=C2\C(=O)Nc3ccc(I)cc32)cc1 [4g, 1H-indole-2,3-dione 3-[N-(4-sulfamoylphenyl)thiosemicarbazone], R = 5-I] | 7.70
NS(=O)(=O)c1ccc(NC(=S)N/N=C2\C(=O)Nc3ccc(S(=O)(=O)O)cc32)cc1 [4h, 1H-indole-2,3-dione 3-[N-(4-sulfamoylphenyl)thiosemicarbazone], R = 5-SO3Na] | 7.70
NS(=O)(=O)c1ccc(NC(=S)N/N=C2\C(=O)Nc3ccc([N+](=O)[O-])cc32)cc1 [4i, 1H-indole-2,3-dione 3-[N-(4-sulfamoylphenyl)thiosemicarbazone], R = 5-NO2] | 7.38
NS(=O)(=O)c1ccc(NC(=S)N/N=C2\C(=O)Nc3c(F)cccc32)cc1 [4j, 1H-indole-2,3-dione 3-[N-(4-sulfamoylphenyl)thiosemicarbazone], R = 7-F] | 7.82
NS(=O)(=O)c1ccc(NC(=S)N/N=C2\C(=O)Nc3c(Cl)cccc32)cc1 [4k, 1H-indole-2,3-dione 3-[N-(4-sulfamoylphenyl)thiosemicarbazone], R = 7-Cl] | 7.89
NS(=O)(=O)c1ccc(NC(=S)N/N=C2\C(=O)Nc3c(Cl)cc(Cl)cc32)cc1 [4l, 1H-indole-2,3-dione 3-[N-(4-sulfamoylphenyl)thiosemicarbazone], R = 5,7-diCl] | 8.19
NS(=O)(=O)c1ccc(NC(=S)N/N=C2\C(=O)Nc3c(Br)cc(Br)cc32)cc1 [4m, 1H-indole-2,3-dione 3-[N-(4-sulfamoylphenyl)thiosemicarbazone], R = 5,7-diBr] | 7.33

Reference: paper PMC6366411, “Novel 2-indolinones containing a sulfonamide moiety as selective inhibitors of candida β-carbonic anhydrase enzyme” (Journal of Enzyme Inhibition and Medicinal Chemistry, 2019)
